Source: article PMC10830420, “Structures, functions and adaptations of the human LINE-1 ORF2 protein” (Nature, 2023)

Legend:
[1] = molecular target: T1, ORF2p core (Homo sapiens, UniProt O00370); assay: Gel-based L1 RT assay, ORF2p core, inhibition by NRTI triphosphates; assay type: biochemical; details: 100 nM dNTP mixture
T1 construct: His6-MBP-3C-ORF2p (238-1061, ORFeus-Hs) in pET41; His6-MBP (3C protease site) (N, cleaved yes); made in house; host or cells: E. coli
Procedure: (§1) ORF2p core was preincubated with a template:primer containing a single site for the incorporation of a given nucleotide analogue. The primer/template sequence shown in the panel a illustrates the case of single incorporation of 3TC, with a single G for incorporation; the incoming template sequence for entecavir and carbovir has a single C, and for d4T a single A, each at position labeled “N”. Reactions were incubated for one minute at 37 °C with a 100 nM dNTP mixture and increasing concentrations of listed inhibitors. IC50 index, fold = IC50 (drug, µM) ÷ [dNTP] […] Fluorescein-labeled dNTPs (here, uracil-TP) are incorporated by ORF2p into a biotinylated primer, here shown against a poly(A) template. Detection is then achieved using FRET with a terbium cryptate labeled streptavidin, and the time-resolved technique and time-delayed emission from terbium cryptate reduces background from other fluorescent chemicals in the mix. In the presence of ORF2p RT inhibitors (RTIs), base incorporation is stopped and FRET signal is lost. […]
(§2) ORF2p reverse transcriptase activity assays […]
Gel-based RT activity assays consisted of pr e-incubating RTs with annealed DNA/RNA, DNA/DNA, or RNA/RNA 5’- end- radiolabeled or 5’-end-Cy5- o r FAM-labeled template:primer duplex or hybrid duplex and, where indicated, inhibitor in the presence of 0.1- 1 μ M dNTP or NTP mixture, 0.25 mM EDTA, 50 mM NaCl, and 25 mM Tris (pH 8) for 10 min at 37°C. Labeled nucleic acids were purchased from Dharmacon or IDT. Unless otherwise indicated, 15 μL reactions were initiated by the addition of 1.3 mM MgCl2, incubated for 10 min at 37 °C, and then stopped by the addition of 15 μL of formamide/EDTA (25 mM) mixture and incubated at 95 °C for 10 min. 3 μL reaction samples were subjected to denaturing 8 M urea 20% PAGE to resolve products followed by signal quantification (ImageQuant 5.2, GE Healthcare Bio- Sciences) through phosphorimaging (Amersham Typhoon 5, Cytivia). Scanned gel images are […]
minor products; original images are provided in an Extended Data file. […]

[2] = molecular target: T1, ORF2p core; assay: Homogeneous time-resolved fluorescence (HTRF) ORF2p RT assay; assay type: biochemical; details: HTRF; NRTI NTPs
Procedure: as §1, §2
For HTRF RT assays157, 25 nM ORF2p core and 12. 5 nM t em plat e: primer was incubated at 25°C for 60 minutes
with 10 nM of fluorescein- 12- dUTP (Thermo), 1 µM each (dATP,dCTP,dGTP), and test compound in a 15 µL
reaction with buffer containing 50 mM Tris-HCl, 50 mM KCl, 10 mM MgCl2, 10 mM DTT, pH 8.1, and 1% final

[3] = molecular target: T2, Full-length ORF2p WT (FADD) (Homo sapiens, UniProt O00370); assay: Gel-based RT assay of full-length ORF2p WT (FADD); assay type: biochemical; details: single-nucleotide-resolution RT assays
T2 construct: gel-based RT assay of full-length ORF2p WT (FADD) or HIV-like (FMDD); His8 (C); HERV-K protease + TEV protease + TEV site (self-processed; leaves one Gly) (N, cleaved yes); made in house; host or cells: SF9 insect cells (MultiBac)
Text: (§3) Crystal structure of AZT triphosphate bound to HIV-1 RT (PDB 5I42) versus model of AZT triphosphate bound to L1 ORF2p. […] Left, HIV-1 RT in the NNRTI-unbound conformation (PDB 7LRI). Residues involved in NNRTI-resistance are highlighted; space occupied by HIV-1-bound nevirapine is shadowed (PDB 4PUO). Right, equivalent region in L1 ORF2p. The long α-helix corresponds to residues 572–588 in ORF2p. […] Data in a, b and e are representative of two independent experiments and shown as mean ± s.d. […]
(§4) server155 and manually checked with cutoff of 2.5-3.3 Å for polar interactions and 3.7 Å for van der Waals […]
(§5) ORF2p reverse transcriptase activity assays
(§6) Microwell assays were performed using the reverse transcriptase assay, colorimetric (Roche) according to the manufacturer’s instructions, with the supplied poly(A) template and oligo(dT) 15 primer. ORF2p fractions were diluted for assay in lysis/binding buffer (50 mM Tris, 80 mM potassium chloride, 2.5 mM DTT, 0.75 mM EDTA, and 0.5% Triton X- 100; pH 7.8) and incorporation of digoxigenin- and biotin- labeled dUTP into DNA was measured by absorbance at 405 nm as compared to a 490 nm reference. […] 3 μL reaction samples were subjected to denaturing 8 M urea 20% PAGE to resolve products followed by signal quantification (ImageQuant 5.2, GE Healthcare Bio- Sciences) through phosphorimaging (Amersham Typhoon 5, Cytivia). […]

[4] = molecular target: T3, A701M mutant full-length ORF2p (FMDD) (Homo sapiens, UniProt O00370, A701M); assay: Gel-based RT assay of full-length ORF2p A701M mutant (FMDD); assay type: biochemical
T3 construct: His8 (C); HERV-K protease + TEV protease + TEV site (self-processed; leaves one Gly) (N, cleaved yes); made in house; host or cells: SF9 insect cells (MultiBac)
Text: as §3, §4, §5, §6

[5] = system: L1 retrotransposition reporter in HeLa cells; assay: LINE-1 dual luciferase retrotransposition assay in HeLa cells; assay type: cell-based, human; details: HeLa cells, stable dual luciferase L1 reporter, normalized to cell viability, n = 3 wells

## Nc1ccn([C@@H]2CS[C@H](CO)O2)c(=O)n1 [3TC, lamivudine]
[1]
  IC50 index, fold = IC50 (drug, µM) ÷ [dNTP] (natural counterpart, 0.1 µM): 56 fold
[1]; NTP forms of NRTIs, one minute at 37 °C
  IC50: 5000 to 7000 nM
[2]
  IC50: 200 to 750 nM
[3]
  inhibition of full-length ORF2p compared with ORF2p core: similarly inhibited
[4]
  fold more potent in inhibiting A701M mutant full-length ORF2p (FMDD) than wild type (FADD): approximately 15 fold
[5]
  IC50: 900 nM
[5]; Homo sapiens, HeLa
  IC50: 1000 to 5000 nM
